According to article PMC7937321 (Genes and Environment, 2021):
Entries after “also recorded” stand apart in the source; their conditions may differ. Like-named read-outs stand apart in the source and are kept apart here.

Tests used:
rodent [1] = conditions: cited from earlier work; for carcinogenicity: report of the National Toxicology Program, ref [24]; for Carcinogenicity Studies: rodent, ref [20]-[41], Table 2
livers of rats = conditions: ref [74]; cited from earlier work
TK6 cells [2] = conditions: human
[3] = tested on: L5178Y mouse lymphoma cells; design: key to MLA (TK gene locus), Without S9 / MLA (TK gene locus), With S9: Positive; Negative; conditions: cited from earlier work
rats [4] = conditions: cited from earlier work
rats [5] = conditions: ref [75]; cited from earlier work
LacI transgenic mice = conditions: ref [77]; cited from earlier work
gpt transgenic rats = tested on: gpt transgenic rats; design: method as in PMID 20026473, doi:10.3123/jemsge.34.25; conditions: ref [23], [78]; cited from earlier work
mouse organs = conditions: ref [80]; cited from earlier work
[6] = tested on: TA1538, TA100, TA98, TA97, TA1535; conditions: cited from earlier work; for Bacterial reverse mutation assay, With S9 / Bacterial reverse mutation assay, Without S9: ref [18]-[40], Table 2
rodent [7] = conditions: cited from earlier work
[8] = tested on: human lymphoblastoid TK6 cells, thymidine kinase gene; test: TK gene mutation assay (TK6 assay, OECD TG490); conditions: for TK6 assay overall judgment: all treatments; for TK mutation assay, With S9 / TK mutation assay, Without S9: short-term 4 h; for TK mutation assay, With S9: with rat liver S9
Experimental: (§1) In principle, this collaborative study conducted the treatment of test substances, the dose finding, and the main test of TK6 assays, according to the OECD Guideline TG490 [17]. […] Briefly, test substances were dissolved in an appropriate solvent (DMSO or ethanol) and then serially diluted to prepare final concentrations. […] The 4 h and 24 h treatments were conducted by shaking and static exposures, respectively. After treatment with test substances, cells were centrifuged (1000 rpm, 5 min), supernatants were removed, and cells were washed with a serum-free medium or Hank’s Balanced Salt Solution. After centrifugation (1000 rpm, 5 min) to remove the supernatant, cells (2 × 10^7 cells) were dispersed in an RPMI medium containing 10% serum, and cell concentration was measured. Treated cells were cultured at 37 °C with 5% CO2 condition and used for TK6 assays. At that time, to calculate the cloning efficiency (CE) (Eq. 1), the cells were cultured in a 96-well microplate at a concentration of about 1.6 cells/well for 2 weeks.
(§2) The TK6 assay is conducted between 20 and 10% RS0 as a maximum dose if cytotoxicity is observed. If no precipitate or limiting cytotoxicity was observed, the maximum dose was the lowest concentration among 10 mM, 2 mg/mL, or 2 μL/mL of the test substance. When the main TK6 assay was difficult to conduct under the condition of RS0 values from 20 to 10%, the test was conducted between 20 and 10% relative total growth (RTG), described later, as a maximum dose.
(§3) On the third day of culture, CE3 plates for determining plating efficiency and mutant frequency (MF) plates for mutation detection were prepared. CE3 plates were seeded in 96-well microplates at a concentration of about 1.6 cells/well. The MF plates were seeded in 96-well microplates at 40,000 cells/well in the presence of 3 μg/mL of trifluorothymidine (Sigma Aldrich).
(§4) Mutant colonies in MF plates were calculated using Eq. 7 using the Poisson distribution. EW was the number of wells without colonies, and TW was the total number of wells. N was the average number of cells per well (N = 40,000 in this study). The data were statistically analyzed by Omori’s method, a modified Dunnett’s procedure for identifying clear negatives, a Simpson–Margolin procedure for detecting downturn data, and a trend test to evaluate the dose dependency [42, 43]. The acceptability criterion for the test was that the MF value of the positive control group of each laboratory was increased with statistical significance compared with that of the concurrent negative control group.

TK6 cells [9] = test: Cytotoxicity in the TK6 assay (CE, RS, RSG, RTG)
[10] = tested on: human lymphoblastoid TK6 cells, thymidine kinase gene
Experimental: as §1, §2, §3, §4

mammalian cells = tested on: mammalian cells; design: method as in PMID 32152633; conditions: ref [10], [11]; cited from earlier work
[11] = tested on: 3-D reconstituted human skin cells; design: method as in PMID 32152633; conditions: ref [10], [11]; cited from earlier work
in vitro = conditions: human
[12] = tested on: human lymphoblastoid TK6 cells, thymidine kinase gene; design: method as in PMID 2184322; conditions: 96 h of exposure, absence of S9; ref [67]; cited from earlier work
human lymphocytes = tested on: human lymphocytes; design: method as in PMID 22539226; conditions: in vitro; ref [6]; cited from earlier work
mice = tested on: mice; design: method as in PMID 22539226; conditions: ref [6]; cited from earlier work
[13] = chromosomal Aberration test, micronucleus test, transgenic rodent gene mutation assay, ref [48], [58]–[63]
[14] = Short-term treatment with metabolic activation
[15] = Short-term treatment without metabolic activation

In the case of `Cc1ccc(N)cc1N` [2,4-Diaminotoluene, reference compound], the carcinogenicity (rodent [1]) is listed as “carcinogenic” and the “DNA adducts in the livers of rats” value (livers of rats) is listed as “Significant DNA adducts were detected”.

In the case of `Cc1c(N)cccc1N` [2,6-Diaminotoluene], the cytotoxicity (TK6 cells [2]) is given as “More than 80%”, the carcinogenicity (rodent [1]) is given as “non-carcinogenic” and the “Carcinogenicity Studies” value (rodent [1]) is given as “Neg”. The “mutagenicity in MLA using L5178Y mouse lymphoma cells” value ([3]; 4 h, −S9, ref [68]) was “occurs”, the “MLA (TK gene locus), Without S9” value ([3]; ref [27], [46]-[53], Table 3) was “Pos” and the UDS assay (rats [4]; high dose, ref [79]) was “positive”. The “unscheduled DNA synthesis (UDS) assay in rats” value (rats [4]; ref [76]) was “negative”, the “DNA adducts in the livers of rats” value (livers of rats) was “marginal amount of adducts” and the “hepatocellular proliferation in rats” value (rats [5]) was “negative”. The “mutagenic assay with LacI transgenic mice” value (LacI transgenic mice) was “negative”, the “gpt mutagenic assay with transgenic rats” value (gpt transgenic rats) was “negative” and the “comet assay of various mouse organs” value (mouse organs) was “negative”. The “The Highest Specific Activity and the Strain” value ([6]; TA100 with S9, ref Table 2) was 1703 revertants/mg in TA100 with S9, the “Bacterial reverse mutation assay, With S9” value [6] was “Pos” and the “Bacterial reverse mutation assay, Without S9” value [6] was “Neg”. The “in vivo genotoxicity tests” value (rodent [7]; [13]) was “negative”, the “TK6 assay result (mutant frequency increase, judgment)” value ([8]; 4h treatment (+S9)) was “Statistically significant increases of MF; also recorded: mutagenic” and the “TK6 assay result (mutant frequency increase, judgment)” value ([8]; 4h treatment (-S9)) was “negative”. The “TK mutation assay, Long term” value ([8]; 24 h, without S9) was “Pos”, the “TK6 assay result (mutant frequency increase, judgment)” value ([8]; 24h treatment (-S9)) was “Statistically significant increases of MF; also recorded: positive; also recorded: mutagenic” and the “TK6 assay overall judgment” value [8] was “positive”. For the same compound, the “TK mutation assay, With S9” value [8] was “Pos” and the “TK mutation assay, Without S9” value ([8]; without S9) was “Neg”.

In the case of `Cl.ClCc1ccccn1` [2-(Chloromethyl) pyridine HCl], the “Carcinogenicity Studies” value (rodent [1]) is given as “Neg”, the “MLA (TK gene locus), With S9” value ([3]; with S9, ref [27], [46]-[53], Table 3) is given as “Pos” and the “MLA (TK gene locus), Without S9” value ([3]; ref [27], [46]-[53], Table 3) is given as “Pos”. The “The Highest Specific Activity and the Strain” value ([6]; TA100 with S9, ref Table 2) was 98.6 revertants/mg in TA100 with S9, the “Bacterial reverse mutation assay, With S9” value [6] was “Pos” and the “Bacterial reverse mutation assay, Without S9” value [6] was “Pos”. The “in vivo genotoxicity tests” value (rodent [7]; in vivo) was “negative”, the “TK6 assay result (mutant frequency increase, judgment)” value ([8]; 4h treatment (+S9)) was “clear concentration-dependent increase of MF” and the “TK6 assay result (mutant frequency increase, judgment)” value ([8]; 4h treatment (-S9)) was “clear concentration-dependent increase of MF”. For the same compound, the “Dunnett type test, test statistic” value [8, 14] was 5.868, the “Trend test, test statistic” value [8, 14] was 3.912 and the “Dunnett type test, test statistic” value [8, 15] was 5.268. For the same compound, the “Trend test, test statistic” value [8, 15] was 3.417, the “TK6 assay overall judgment” value [8] was “positive” and the “TK mutation assay, With S9” value [8] was “Pos”. The “TK mutation assay, Without S9” value ([8]; without S9) was “Pos”, the “cytotoxicity (relative colony efficiency)” value (TK6 cells [9]; 60 μg/mL, absence of S9, short-term) was “About 80%” and the “cytotoxicity (relative colony efficiency)” value (TK6 cells [9]; 100 μg/mL, presence of S9, short-term) was “About 80%”.

In the case of `Oc1cccc2cccnc12` [8-Hydroxyquinoline], the “TK mutation assay, With S9” value [10] is reported as “Pos”, the “TK mutation assay, Without S9” value [10] is reported as “Neg” and the “Trend test, test statistic” value ([10]; human) is reported as 4.896 / 1.645 / p < 0.05. For the same compound, the “Carcinogenicity Studies” value (rodent [1]) was “Neg”, the “MLA (TK gene locus), Without S9” value ([3]; ref [27], [46]-[53], Table 3) was “Pos” and the “The Highest Specific Activity and the Strain” value ([6]; TA97 with S9, ref [28]) was 21,400 revertants/mg. The “The Highest Specific Activity and the Strain” value ([6]; TA100 with S9, ref Table 2) was 16,000 revertants/mg, the “specific activity values obtained from Ames test” value ([6]; ref Table 2) was “exceeding 10,000 revertants per milligram” and the “Bacterial reverse mutation assay, With S9” value [6] was “Pos”. For the same compound, the “Bacterial reverse mutation assay, Without S9” value [6] was “Neg” and the “in vivo genotoxicity tests” value (rodent [7]; [13]) was “negative”.

In the case of `C[N+](C)(C)c1ccc2ccc(O)c(N=Nc3ccc(N)c([N+](=O)[O-])c3)c2c1.[Cl-]` [Basic Brown 17], the “mutation assays using mouse lymphoma” value ([3]; two loci of TK and HPRT, ref [10], [11]) is given as “negative”, the “in vitro micronucleus test using mammalian cells” value (mammalian cells) is given as “negative” and the “comet assay with 3-D reconstituted human skin cells” value [11] is given as “negative”. For the same compound, the Ames test ([6]; ref [10], [11]) was “positive”.

In the case of `COS(C)(=O)=O` [MMS, methyl methanesulfonate], the “Mut. freq. T-MF (MF)” value ([10]; human, 4 h, 3 μg/mL) is reported as 23.9 ×10-6, the MF ([10]; human, 4 h, 5 μg/mL) is reported as 71.7 and the “Mut. freq. N-MF” value ([10]; human, 4 h, 5 μg/mL) is reported as 29.3 ×10-6. For the same compound, the “Mut. freq. S-MF” value ([10]; human, 4 h, 5 μg/mL) was 42.3 ×10-6, the “Mut. freq. T-MF” value ([10]; human, 4 h, 5 μg/mL) was 71.7 ×10-6 and the “%SG” value ([10]; human, 24 h, 1 μg/mL) was 59.3%. The “Mut. freq. (×10-6) N-MF” value ([10]; human, 24 h, 1 μg/mL) was 14.0 ×10-6, the “Mut. freq. (×10-6) S-MF” value ([10]; human, 24 h, 1 μg/mL) was 20.5 ×10-6 and the “Mut. freq. (×10-6) T-MF” value ([10]; human, 24 h, 1 μg/mL) was 34.5 ×10-6. For the same compound, the MF ([10]; human, 24 h, 2 μg/mL) was 86.4, the “Mut. freq. (×10-6) N-MF” value ([10]; human, 24 h, 2 μg/mL) was 25.3 ×10-6 and the “Mut. freq. (×10-6) S-MF” value ([10]; human, 24 h, 2 μg/mL) was 39.7 ×10-6. The “Mut. freq. (×10-6) T-MF” value ([10]; human, 24 h, 2 μg/mL) was 65.0 ×10-6, the “Mut. freq. N-MF” value ([10]; human, 24 h, 2 μg/mL) was 51.4 ×10-6 and the “Mut. freq. S-MF” value ([10]; human, 24 h, 2 μg/mL) was 34.9 ×10-6. For the same compound, the “Mut. freq. T-MF” value ([10]; human, 24 h, 2 μg/mL) was 86.4 ×10-6, the “CE0 (%)” value (TK6 cells [2]; 4 h, 3 μg/mL) was 48.8% and the “CE0 (%), cell viability on Day 0” value (TK6 cells [2]; 4 h, 3 μg/mL) was 38.3%. The “CE3 (%)” value (TK6 cells [2]; 4 h, 3 μg/mL) was 56.3%, the “CE3 (%), cell viability on Day 3” value (TK6 cells [2]; 4 h, 3 μg/mL) was 54.7% and the “Daily cell growth Day 1×2×3” value (TK6 cells [2]; 4 h, 3 μg/mL) was 8.36. The “Adjusted CE0” value (TK6 cells [2]; 4 h, 5 μg/mL) was 30.4%, the CE0 (TK6 cells [2]; 4 h, 5 μg/mL) was 32.6% and the “Daily cell growth Day 1×2×3” value (TK6 cells [2]; 4 h, 5 μg/mL) was 7.40. It also gave an RS (TK6 cells [2]; 4 h, 5 μg/mL) of 35.0, an RS0 (TK6 cells [2]; 4 h, 5 μg/mL) of 35.0% and an RSG (TK6 cells [2]; 4 h, 5 μg/mL) of 0.357. For the same compound, the “Adjusted CE0(%)” value (TK6 cells [2]; 24 h, 1 μg/mL) was 133.2%, the “CE0 (%)” value (TK6 cells [2]; 24 h, 1 μg/mL) was 63.1% and the CE3 (TK6 cells [2]; 24 h, 1 μg/mL) was 0.866. For the same compound, the “CE3 (%)” value (TK6 cells [2]; 24 h, 1 μg/mL) was 86.6%, the “Daily cell growth Day 1×2×3” value (TK6 cells [2]; 24 h, 1 μg/mL) was 15.58 and the “RS0 (%)” value (TK6 cells [2]; 24 h, 1 μg/mL) was 59.4%. The RSG (TK6 cells [2]; 24 h, 1 μg/mL) was 0.886, the “Adjusted CE0” value (TK6 cells [2]; 24 h, 2 μg/mL) was 8.3% and the “Adjusted CE0(%)” value (TK6 cells [2]; 24 h, 2 μg/mL) was 42.0%. The CE0 (TK6 cells [2]; 24 h, 2 μg/mL) was 14.6%, the “CE0 (%)” value (TK6 cells [2]; 24 h, 2 μg/mL) was 21.6% and the “CE3 (%)” value (TK6 cells [2]; 24 h, 2 μg/mL) was 81.6%. For the same compound, the RS (TK6 cells [2]; 24 h, 2 μg/mL) was 12.2, the RS0 (TK6 cells [2]; 24 h, 2 μg/mL) was 12.2% and the “RS0 (%)” value (TK6 cells [2]; 24 h, 2 μg/mL) was 18.7%. For the same compound, the viability at 4 h, 3 μg/mL (in vitro; CE0 (%), cell viability on Day 0) was 27.3% and the viability at 4 h, 3 μg/mL (in vitro; CE3 (%), cell viability on Day 3) was 70.6%.

For `Nc1ccc(-c2ccc(N)cc2)cc1` [benzidine], the “Mutagenicity in human TK6 cells” value [12] is given as “Mutagenicity was confirmed”.

In the case of `CSc1ccc(OCc2ncc([N+](=O)[O-])n2C)cc1` [fexinidazole, reference compound], the “micronucleus test in human lymphocytes” value (human lymphocytes) is given as “negative”, the “ex vivo unscheduled DNA synthesis in rats” value (rats [4]; ref [6]) is given as “negative” and the “bone marrow micronucleus test in mice” value (mice) is given as “negative”. For the same compound, the Ames test ([6]; ref [6]) was “positive”.
